Data published in ChEMBL document CHEMBL2177079, “Free-Wilson and structural approaches to co-optimizing human and rodent isoform potency for 11β-hydroxysteroid dehydrogenase type 1 (11β-HSD1) inhibitors” (J Med Chem, 2012).
The source made the active and inactive calls. The rule behind the calls is not given here.

How the values were obtained:
[1] = AUC in female beagle dog at 1.2 umol/kg, po; format: ADME, organism-based, Canis lupus familiaris; details: plasma
[2] = molecular target: T1, 17-beta-hydroxysteroid dehydrogenase type 3 (Homo sapiens) (UniProt P37058); test: Inhibition of human 17beta-HSD3 at 10 uM by HPLC assay
T1 sequence (whole entry): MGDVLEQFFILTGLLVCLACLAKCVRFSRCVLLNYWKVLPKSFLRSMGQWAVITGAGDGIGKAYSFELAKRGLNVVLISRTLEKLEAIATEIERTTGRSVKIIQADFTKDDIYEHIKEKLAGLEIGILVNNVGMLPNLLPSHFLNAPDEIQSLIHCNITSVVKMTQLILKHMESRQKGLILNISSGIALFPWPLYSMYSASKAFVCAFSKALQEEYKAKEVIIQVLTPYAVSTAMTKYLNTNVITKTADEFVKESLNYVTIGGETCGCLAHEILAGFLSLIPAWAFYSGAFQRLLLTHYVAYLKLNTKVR

[3] = Volume of distribution at steady state in female beagle dog at 1 umol/kg, iv; format: ADME, organism-based, Canis lupus familiaris; details: in vivo, read-out: Vdss
[4] = Clearance in mouse at 4.7 umol/kg, iv; format: ADME, organism-based; details: in vivo
Rattus norvegicus [5] = test: Inhibition of 11beta-HSD1 in po dosed Han Wistar rat epididymal adipose tissue assessed as conversion of [3H]cortisone to [3H]cortisol; format: functional, organism-based
[6] = molecular target: T2, 11-beta-hydroxysteroid dehydrogenase type 2 (Homo sapiens, UniProt P80365); test: Inhibition of human 11beta-HSD2 by HTRF assay
T2 sequence (P80365 whole entry): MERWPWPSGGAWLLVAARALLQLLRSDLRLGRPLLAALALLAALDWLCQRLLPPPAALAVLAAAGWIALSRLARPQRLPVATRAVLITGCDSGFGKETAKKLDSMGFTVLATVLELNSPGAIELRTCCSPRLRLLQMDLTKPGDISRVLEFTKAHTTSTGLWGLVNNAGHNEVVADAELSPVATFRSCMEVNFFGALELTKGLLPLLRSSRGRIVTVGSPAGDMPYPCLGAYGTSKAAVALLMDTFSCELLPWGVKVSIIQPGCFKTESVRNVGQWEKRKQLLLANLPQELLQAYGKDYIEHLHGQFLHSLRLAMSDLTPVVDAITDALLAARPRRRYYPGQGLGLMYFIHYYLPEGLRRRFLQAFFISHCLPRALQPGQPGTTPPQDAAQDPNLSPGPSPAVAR

[7] = Intrinsic clearance in female beagle dog hepatocytes measured per 10^6 cells; format: ADME, cell-based, Canis lupus familiaris, Hepatocyte; details: read-out: CLH
[8] = Intrinsic clearance in Han Wistar rat hepatocytes measured per 10^6 cells; format: ADME, cell-based, Hepatocyte; details: read-out: CLH
[9] = Half life in mouse at 4.7 umol/kg, iv; format: ADME, organism-based; details: in vivo
[10] = Intrinsic clearance in mouse hepatocytes measured per 10^6 cells; format: ADME, cell-based, Hepatocyte; details: read-out: CLH
[11] = Lipophilicity, log D at pH 7.4; format: physicochemical; details: buffer
[12] = Fraction unbound in mouse plasma; format: ADME, cell-free
[13] = Clearance in female beagle dog at 1 umol/kg, iv; format: ADME, organism-based, Canis lupus familiaris; details: in vivo
[14] = AUC in Han Wistar rat at 11.7 umol/kg, po; format: ADME, organism-based; details: plasma
[15] = molecular target: T3, 11-beta-hydroxysteroid dehydrogenase 1 (Homo sapiens, UniProt P28845); test: Inhibition of human 11beta-HSD1 by HPLC assay
T3 sequence (P28845 whole entry): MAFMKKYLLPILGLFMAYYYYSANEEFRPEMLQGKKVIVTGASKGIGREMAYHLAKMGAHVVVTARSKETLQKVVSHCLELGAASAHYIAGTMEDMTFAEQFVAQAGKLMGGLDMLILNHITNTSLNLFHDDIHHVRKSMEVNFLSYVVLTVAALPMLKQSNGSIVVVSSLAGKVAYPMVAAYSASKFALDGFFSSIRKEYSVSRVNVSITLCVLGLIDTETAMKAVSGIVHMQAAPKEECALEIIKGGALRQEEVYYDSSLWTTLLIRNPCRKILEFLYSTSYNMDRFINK

[16] = Clearance in male beagle dog at 1 umol/kg, iv; format: ADME, organism-based, Canis lupus familiaris; details: in vivo
[17] = Oral bioavailability in mouse at 11.7 umol/kg; format: ADME, organism-based; details: in vivo
[18] = Intrinsic clearance in male beagle dog hepatocytes measured per 10^6 cells; format: ADME, cell-based, Canis lupus familiaris, Hepatocyte; details: read-out: CLH
[19] = Fraction unbound in human plasma; format: ADME, cell-free
Mus musculus [20] = test: Inhibition of 11beta-HSD1 in po dosed C57 mouse epididymal adipose tissue assessed as conversion of [3H]cortisone to [3H]cortisol; format: functional, organism-based
[21] = molecular target: T4, 17-beta-hydroxysteroid dehydrogenase type 1 (Homo sapiens, UniProt P14061); test: Inhibition of human 17beta-HSD1 by HPLC assay
T4 sequence (P14061 whole entry): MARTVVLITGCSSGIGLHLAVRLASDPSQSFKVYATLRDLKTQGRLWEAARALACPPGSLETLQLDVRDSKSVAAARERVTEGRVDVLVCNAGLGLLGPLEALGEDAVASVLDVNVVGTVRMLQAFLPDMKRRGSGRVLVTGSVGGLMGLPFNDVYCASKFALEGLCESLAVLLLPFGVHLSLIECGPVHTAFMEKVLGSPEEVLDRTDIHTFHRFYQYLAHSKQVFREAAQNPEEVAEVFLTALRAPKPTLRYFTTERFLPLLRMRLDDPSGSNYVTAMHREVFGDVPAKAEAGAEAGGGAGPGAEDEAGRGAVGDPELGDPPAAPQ

[22] = molecular target: 11-beta-hydroxysteroid dehydrogenase 1 (Mus musculus, UniProt P50172); test: Inhibition of mouse 11beta-HSD1 by HTRF assay
Sequence of 11-beta-hydroxysteroid dehydrogenase 1 (Mus musculus, UniProt P50172) (P50172 whole entry): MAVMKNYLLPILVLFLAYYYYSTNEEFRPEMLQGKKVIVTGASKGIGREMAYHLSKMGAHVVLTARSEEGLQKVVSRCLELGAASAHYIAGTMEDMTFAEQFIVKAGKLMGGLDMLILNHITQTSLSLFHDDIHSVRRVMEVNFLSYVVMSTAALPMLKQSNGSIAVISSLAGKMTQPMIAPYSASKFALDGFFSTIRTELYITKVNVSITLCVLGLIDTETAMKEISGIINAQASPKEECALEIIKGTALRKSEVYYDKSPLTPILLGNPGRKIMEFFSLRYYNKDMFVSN

[23] = Half life in Han Wistar rat at 4.7 umol/kg, iv; format: ADME, organism-based; details: in vivo
[24] = Volume of distribution at steady state in male beagle dog at 1 umol/kg, iv; format: ADME, organism-based, Canis lupus familiaris; details: in vivo, read-out: Vdss
[25] = Oral bioavailability in male beagle dog at 1.2 umol/kg; format: ADME, organism-based, Canis lupus familiaris; details: in vivo
[26] = Volume of distribution at steady state in mouse at 4.7 umol/kg, iv; format: ADME, organism-based; details: in vivo, read-out: Vdss
[27] = (§1) Oral bioavailability in Han Wistar rat at 7.4 to 14.7 umol/kg; format: ADME, organism-based; details: Han Wistar, in vivo
[28] = Volume of distribution at steady state in Han Wistar rat at 4.7 umol/kg, iv; format: ADME, organism-based; details: in vivo, read-out: Vdss
[29] = molecular target: T3, 11-beta-hydroxysteroid dehydrogenase 1; test: Inhibition of human 11beta-HSD1 by HTRF assay
[30] = AUC in male beagle dog at 1.2 umol/kg, po; format: ADME, organism-based, Canis lupus familiaris; details: plasma
[31] = Clearance in Han Wistar rat at 4.7 umol/kg, iv; format: ADME, organism-based; details: in vivo
[32] = Oral bioavailability in Han Wistar rat at 11.7 umol/kg; format: ADME, organism-based; details: in vivo
[33] = AUC in mouse at 11.7 umol/kg, po; format: ADME, organism-based, Plasma; details: whole blood
[34] = Fraction unbound in Han Wistar rat plasma; format: ADME, cell-free
[35] = Fraction unbound in male beagle dog plasma; format: ADME, cell-free, Canis lupus familiaris
[36] = Intrinsic clearance in human hepatocytes measured per 10^6 cells; format: ADME, cell-based, Hepatocyte; details: read-out: CLH
[37] = Half life in female beagle dog at 1 umol/kg, iv; format: ADME, organism-based, Canis lupus familiaris; details: in vivo
[38] = Half life in male beagle dog at 1 umol/kg, iv; format: ADME, organism-based, Canis lupus familiaris; details: in vivo
[39] = Fraction unbound in female beagle dog plasma; format: ADME, cell-free, Canis lupus familiaris
[40] = Oral bioavailability in female beagle dog at 1.2 umol/kg; format: ADME, organism-based, Canis lupus familiaris; details: in vivo
[41] = Volume of distribution at steady state in female beagle dog at 0.6 umol/kg, iv; format: ADME, organism-based, Canis lupus familiaris; details: in vivo, read-out: Vdss
[42] = Clearance in female beagle dog at 0.6 umol/kg, iv; format: ADME, organism-based, Canis lupus familiaris; details: in vivo
[43] = Clearance in male beagle dog at 0.6 umol/kg, iv; format: ADME, organism-based, Canis lupus familiaris; details: in vivo
Mus musculus [44] = test: Reduction in fasting plasma glucose levels in obese mouse at 300 mg/kg/day, po; format: functional, organism-based
Mus musculus [45] = test: Reduction in fasting plasma glucose levels in obese mouse at 50 mg/kg/day, po; format: functional, organism-based
[46] = Oral bioavailability in Han Wistar rat at 7 umol/kg; format: ADME, organism-based; details: in vivo
Mus musculus [47] = test: Reduction in body weight in obese mouse at 50 mg/kg/day, po; format: functional, organism-based
[48] = molecular target: Corticosteroid 11-beta-dehydrogenase isozyme 1 (Mus musculus) (UniProt P50172); test: Inhibition of 11beta-HSD1 in po dosed mouse liver assessed as target engagement; parameters: scale not given: the % may be the effect or the level left
Mus musculus [49] = test: Reduction in body weight in obese mouse at 300 mg/kg/day, po; format: functional, organism-based
[50] = Half life in female beagle dog at 0.6 umol/kg, iv; format: ADME, organism-based, Canis lupus familiaris; details: in vivo
[51] = Volume of distribution at steady state in male beagle dog at 0.6 umol/kg, iv; format: ADME, organism-based, Canis lupus familiaris; details: in vivo, read-out: Vdss
[52] = AUC in Han Wistar rat at 7 umol/kg, po; format: ADME, organism-based, Plasma; details: whole blood
[53] = Half life in male beagle dog at 0.6 umol/kg, iv; format: ADME, organism-based, Canis lupus familiaris; details: in vivo
Rattus norvegicus [54] = test: as §1; format: ADME, organism-based; details: in vivo

O=C(N[C@H]1C2CC3CC1C[C@](O)(C3)C2)c1cnc(NC2CCOCC2)nc1C1CCC1
AUC [1]: 0.16 µM·h | inhibition [2]: 4% | Vd [3]: 1.6 L/kg | clearance [4]: 42 mL/min/kg | IC50 (Rattus norvegicus [5]): 0.087 µM | IC50 [6]: > 30 µM | hepatocyte CLint [7]: < 2 µL/min/1e6 cells | hepatocyte CLint [8]: < 2 µL/min/1e6 cells | half-life [9]: 24 min | hepatocyte CLint [10]: 3.6 µL/min/1e6 cells | logD [11]: 2.1 | fraction unbound [12]: > 0.5 | clearance [13]: 29 mL/min/kg | AUC [14]: 10.4 µM·h | IC50 [15]: 0.014 µM | clearance [16]: 19 mL/min/kg | bioavailability [17]: 57% | hepatocyte CLint [18]: < 2 µL/min/1e6 cells | fraction unbound [19]: 0.52 | IC50 (Mus musculus [20]): 0.03 µM | IC50 [21]: > 35 µM | IC50 [22]: 0.027 µM | half-life [23]: 36 min | Vd [24]: 1.1 L/kg | bioavailability [25]: 34% | Vd [26]: 1.1 L/kg | bioavailability [27]: 100% | Vd [28]: 0.9 L/kg | IC50 [29]: 0.028 µM | AUC [30]: 0.38 µM·h | clearance [31]: 32 mL/min/kg | bioavailability [32]: 100% | AUC [33]: 2.7 µM·h | fraction unbound [34]: 0.55 | fraction unbound [35]: > 0.66 | hepatocyte CLint [36]: < 2 µL/min/1e6 cells | half-life [37]: 42 min | half-life [38]: 48 min | fraction unbound [39]: > 0.66 | bioavailability [40]: 23%

O=C(N[C@H]1C2CC3CC1C[C@](O)(C3)C2)c1cnc(N[C@H]2CCOC2)nc1C1CCCC1
AUC [1]: 0.42 µM·h | inhibition [2]: 7% | clearance [4]: 57 mL/min/kg | IC50 [6]: > 30 µM | hepatocyte CLint [7]: 6.7 µL/min/1e6 cells | hepatocyte CLint [8]: < 2 µL/min/1e6 cells | half-life [9]: 42 min | hepatocyte CLint [10]: 9.1 µL/min/1e6 cells | Vd [41]: 0.6 L/kg | logD [11]: 2.4 | fraction unbound [12]: 0.3 | clearance [42]: 14 mL/min/kg | IC50 [15]: 0.0016 µM | clearance [43]: 17 mL/min/kg | bioavailability [17]: 34% | hepatocyte CLint [18]: 6.7 µL/min/1e6 cells | fraction unbound [19]: 0.38 | IC50 (Mus musculus [20]): 0.05 µM | IC50 [21]: > 100 µM | IC50 [22]: 0.032 µM | half-life [23]: 144 min | bioavailability [25]: 15% | Activity (Mus musculus [44]): Active | Activity (Mus musculus [45]): inactive | Vd [26]: 2.4 L/kg | bioavailability [27]: 61% | Vd [28]: 1 L/kg | bioavailability [46]: 61% | IC50 [29]: 0.021 µM | AUC [30]: 0.19 µM·h | clearance [31]: 9 mL/min/kg | Activity (Mus musculus [47]): Active | AUC [33]: 1.5 µM·h | fraction unbound [34]: 0.35 | fraction unbound [35]: 0.38 | hepatocyte CLint [36]: < 2 µL/min/1e6 cells | Activity [48]: >90% | Activity (Mus musculus [49]): Active | half-life [50]: 36 min | Vd [51]: 0.7 L/kg | AUC [52]: 5.6 µM·h | half-life [53]: 36 min | fraction unbound [39]: 0.38 | bioavailability [40]: 30%

CC(C)(CO)Nc1ncc(C(=O)N[C@H]2C3CC4CC2C[C@](O)(C4)C3)c(OC2CCC2)n1
logD [11]: 3.1 | IC50 [22]: 0.02 µM | F (Rattus norvegicus [54]): 161%
